Key:
[1] = test system: A2780S; assay: Induction of cell cycle arrest in human A2780S cells assessed as accumulation of cells at G0/G1 phase at 3 nM measured after 24 hrs by propidium iodide staining based analysis (reference value: 51.71%); type: functional
[2] = test system: A2780/Taxol; assay: Antitumor activity against human A2780T cells xenografted in mouse model assessed as tumor growth inhibition at 10 mg/kg, iv administered every two days for 18 days relative to control; type: functional; details: 432 h, time 18 day, read-out: TGI
[3] = test system: A2780/Taxol; assay: Antitumor activity against human A2780T cells xenografted in mouse model assessed as tumor growth inhibition at 20 mg/kg, iv administered every two days for 18 days relative to control; type: functional; details: 432 h, time 18 day, read-out: TGI
[4] = Half life in male Sprague-Dawley rat at 10 mg/kg, iv; type: ADME, organism-based; details: in vivo
[5] = target: Tubulin (Homo sapiens) (UniProt P68371+Q9H4B7+P0DPH7+P68366+Q13509+Q71U36+P04350+Q3ZCM7+P07437+P68363+Q9BQE3+Q6PEY2+Q13885+Q9BVA1+Q9BUF5); assay: Inhibition of tubulin polymerization (unknown origin) preincubated for 5 mins with compound followed by GTP addition and measured upto 40 mins; type: protein-complex assay; details: dose 5-10 µM, time <= 45.0 min
[6] = test system: A2780S; assay: Induction of cell cycle arrest in human A2780S cells assessed as accumulation of cells at S phase at 10 nM measured after 24 hrs by propidium iodide staining based analysis (reference value: 29.85%); type: functional
[7] = test system: A2780/Taxol; assay: Induction of cell cycle arrest in human A2780T cells assessed as accumulation of cells at G2/M phase at 3 nM measured after 24 hrs by propidium iodide staining based analysis (reference value: 24.13%); type: functional
[8] = test system: A2780/Taxol; assay: Induction of cell cycle arrest in human A2780T cells assessed as accumulation of cells at G2/M phase at 300 nM measured after 24 hrs by propidium iodide staining based analysis (reference value: 24.13%); type: functional
[9] = test system: A2780S; assay: Induction of cell cycle arrest in human A2780S cells assessed as accumulation of cells at G2/M phase at 100 nM measured after 24 hrs by propidium iodide staining based analysis (reference value: 18.43%); type: functional
[10] = test system: K562; assay: Antiproliferative activity against human K562 cells assessed as reduction in cell viability measured after 72 hrs; type: functional, cell-based; details: K562, 72 h
[11] = test system: A2780S; assay: Antitumor activity against human A2780S cells xenografted in mouse model assessed as tumor growth inhibition at 10 mg/kg, iv administered every two days for 12 days relative to control; type: functional; details: 288 h, time 12 day, read-out: TGI
[12] = Bioavailability in male Sprague-Dawley rat at 10 mg/kg, iv; type: ADME, organism-based; details: in vivo
[13] = test system: A2780S; assay: Induction of cell cycle arrest in human A2780S cells assessed as accumulation of cells at G0/G1 phase at 300 nM measured after 24 hrs by propidium iodide staining based analysis (reference value: 51.71%); type: functional
[14] = test system: A2780/Taxol; assay: Induction of apoptosis in human A2780T cells assessed as total number of late apoptotic cells at 100 nM measured after 48 hrs by Annexin-V-FITC and PI staining based flow cytometry analysis (reference value: 3.42%); type: functional
[15] = test system: NCI/ADR-RES; assay: Antiproliferative activity against human MCF7ADR cells assessed as reduction in cell viability measured after 72 hrs; type: functional, cell-based
[16] = test system: HUVEC; assay: Antivascular activity against human HUVEC cells assessed as inhibition of capillary tube formation at 40 nM incubated for 6 hrs by microscopy based analysis relative to control; type: functional; design: scale not given: the % may be the effect or the level left
[17] = test system: A2780/Taxol; assay: Antitumor activity against human A2780T cells xenografted in mouse model assessed as tumor growth inhibition at 40 mg/kg, iv administered every two days for 18 days relative to control; type: functional; details: 432 h, time 18 day, read-out: TGI
[18] = test system: A2780/Taxol; assay: Induction of cell cycle arrest in human A2780T cells assessed as accumulation of cells at G0/G1 phase at 10 nM measured after 24 hrs by propidium iodide staining based analysis (reference value: 46.141%); type: functional
[19] = test system: A2780/Taxol; assay: Induction of cell cycle arrest in human A2780T cells assessed as accumulation of cells at G2/M phase at 100 nM measured after 24 hrs by propidium iodide staining based analysis (reference value: 24.13%); type: functional
[20] = test system: A2780S; assay: Induction of cell cycle arrest in human A2780S cells assessed as accumulation of cells at G0/G1 phase at 10 nM measured after 24 hrs by propidium iodide staining based analysis (reference value: 51.71%); type: functional
[21] = test system: A2780S; assay: Induction of cell cycle arrest in human A2780S cells assessed as accumulation of cells at S phase at 300 nM measured after 24 hrs by propidium iodide staining based analysis (reference value: 29.85%); type: functional
[22] = test system: A2780S; assay: Induction of apoptosis in human A2780S cells assessed as total number of late apoptotic cells at 100 nM measured after 48 hrs by Annexin-V-FITC and PI staining based flow cytometry analysis (reference value: 3.42%); type: functional
[23] = test system: A549/TR; assay: Antiproliferative activity against paclitaxel resistant human A549T cells assessed as reduction in cell viability measured after 72 hrs; type: functional, cell-based
[24] = Clearance in male Sprague-Dawley rat at 10 mg/kg, iv; type: ADME, organism-based; details: in vivo
[25] = AUC (0 to t) in male Sprague-Dawley rat at 10 mg/kg, po; type: ADME, organism-based; details: in vivo
[26] = test system: A2780/Taxol; assay: Induction of apoptosis in human A2780T cells assessed as total number of late apoptotic cells at 300 nM measured after 48 hrs by Annexin-V-FITC and PI staining based flow cytometry analysis (reference value: 3.42%); type: functional
[27] = Cmax in male Sprague-Dawley rat at 10 mg/kg, po; type: ADME, organism-based; details: in vivo
[28] = test system: A2780/Taxol; assay: Induction of cell cycle arrest in human A2780T cells assessed as accumulation of cells at S phase at 300 nM measured after 24 hrs by propidium iodide staining based analysis (reference value: 29.73%); type: functional
[29] = test system: A2780S; assay: Induction of cell cycle arrest in human A2780S cells assessed as accumulation of cells at G2/M phase at 30 nM measured after 24 hrs by propidium iodide staining based analysis (reference value: 18.43%); type: functional
[30] = test system: MOLM-13; assay: Antiproliferative activity against human MOLM-13 cells assessed as reduction in cell viability measured after 72 hrs; type: functional, cell-based; details: MOLM-13, 72 h
[31] = test system: A2780/Taxol; assay: Induction of apoptosis in human A2780T cells assessed as total number of late apoptotic cells at 30 nM measured after 48 hrs by Annexin-V-FITC and PI staining based flow cytometry analysis (reference value: 3.42%); type: functional
[32] = Cmax in male Sprague-Dawley rat at 10 mg/kg, iv; type: ADME, organism-based; details: in vivo
[33] = test system: A2780S; assay: Induction of cell cycle arrest in human A2780S cells assessed as accumulation of cells at S phase at 100 nM measured after 24 hrs by propidium iodide staining based analysis (reference value: 29.85%); type: functional
[34] = test system: A2780/Taxol; assay: Antiproliferative activity against human A2780T cells assessed as reduction in cell viability measured after 72 hrs; type: functional, cell-based
[35] = test system: A2780/Taxol; assay: Induction of cell cycle arrest in human A2780T cells assessed as accumulation of cells at G0/G1 phase at 100 nM measured after 24 hrs by propidium iodide staining based analysis (reference value: 46.141%); type: functional
[36] = Selectivity ratio of IC50 for paclitaxel resistant human A549/Taxol cells to IC50 for human A549

half-life [4]: 1.93 h
inhibition [5]: Dose-Dependent Effect
IC50 [10]: 30 nM
bioavailability [12]: 10.5%
IC50 [23]: 37 nM
clearance [24]: 42.5 mL/min/kg
AUC(0-t) [25]: 447 ng·h/mL
Cmax [27]: 77.9 ng/mL
IC50 [30]: 20 nM
Cmax [32]: 2890 ng/mL
IC50 [34]: 16 nM
SMILES: COc1cccc(-c2cc(NCc3ccc4[nH]ccc4c3)nc(N)n2)c1
Activity [1]: 47.48%
inhibition in vivo at 10 mg/kg [2]: 52.2%
inhibition in vivo at 20 mg/kg [3]: 68.2%
Activity [6]: 29.27%
Activity [7]: 19.35%
Activity [8]: 83.98%
Activity [9]: 42.46%
inhibition in vivo at 10 mg/kg [11]: 45.3%
Activity [13]: 1.54%
Activity [14]: 14.43%
IC50 [15]: 32 nM
Activity [16]: 100%
inhibition in vivo at 40 mg/kg [17]: 82%
Activity [18]: 46.48%
Activity [19]: 83.16%
Activity [20]: 48.57%
Activity [21]: 16.35%
Activity [22]: 14.43%
Activity [26]: 15.57%
Activity [28]: 11.38%
Activity [29]: 23.82%
Activity [31]: 5.29%
Activity [33]: 37.17%
Activity [35]: 7.72%
Ratio IC50 [36]: 1.1

Reference: ChEMBL document CHEMBL5543108, “Structure-based design and synthesis of BML284 derivatives: A novel class of colchicine-site noncovalent tubulin degradation agents” (Eur J Med Chem, 2024)
